Structures can show the parent of a compound that is named as a salt. Where two headings read alike, the source gives them in different places.
Key:
delta receptors [1] = biological target: T1, delta receptors (Cavia porcellus, UniProt A0A286XTF2); assay: biochemical; assay type: binding, guinea pig
T1 construct: The brains were then homogenized in 50 mM Tris HCl, buffer pH 7.7, using a Polytron; from tissue; host or cells: guinea pig brain homogenate (membrane pellet)

mu opioid receptors = mu opioid receptors (Cavia porcellus, UniProt A0ACM8Q262); assay type: binding, guinea pig; details: read-out: Ki μ [^3H]DAMGO
mu receptors = assay type: cell-based, guinea pig
κ2 sites = assay type: binding, guinea pig
[2] = tested on: electrically stimulated guinea pig ileum; assay: tissue or blood; assay type: cell-based
kappa3 receptors = assay type: binding, guinea pig; details: read-out: Ki κ3 [^3H]NalBzoH
[3] = tested on: electrically stimulated mouse vas deferens; assay: tissue or blood; assay type: cell-based
kappa receptors = biological target: T2, kappa receptors (Cavia porcellus, UniProt P41144); assay type: cell-based, guinea pig
T2 construct: The longitudinal muscle with the myenteric plexus attached was gently separated from the underlying circular muscle; from tissue; host or cells: guinea pig ileum longitudinal muscle with myenteric plexus

delta receptors [4] = biological target: T3, delta receptors (Mus musculus, UniProt P32300); assay type: cell-based
T3 construct: The vas deferens from Swiss-Webster mice (30-35 g) were prepared as described by Hughes et al; from tissue; host or cells: mouse vas deferens (Swiss-Webster)

[5] = read-out: Guinea Pig Ileum IC50
[6] = read-out: IC50 (nM), Guinea Pigs Ileum
[7] = read-out: Mouse Vas Deferens IC50
[8] = Mus musculus, read-out: Mouse Vas Deferens IC50 (nM)
[9] = Cavia porcellus, read-out: Guinea Pig Ileum IC50 (nM)
[10] = read-out: IC50 (nM), Mouse Vas Deferens

T3 sequence (P32300 whole entry): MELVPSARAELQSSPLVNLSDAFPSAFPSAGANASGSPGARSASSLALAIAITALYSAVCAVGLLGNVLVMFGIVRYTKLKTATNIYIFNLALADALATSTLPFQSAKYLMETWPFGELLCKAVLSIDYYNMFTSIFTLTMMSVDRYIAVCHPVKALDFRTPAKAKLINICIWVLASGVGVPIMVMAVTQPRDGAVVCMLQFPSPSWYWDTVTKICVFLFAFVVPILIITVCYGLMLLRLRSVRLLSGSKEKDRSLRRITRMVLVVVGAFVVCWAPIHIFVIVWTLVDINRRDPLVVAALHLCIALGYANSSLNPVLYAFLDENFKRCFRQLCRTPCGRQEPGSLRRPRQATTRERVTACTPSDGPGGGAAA
T1 sequence (A0A286XTF2 1-366): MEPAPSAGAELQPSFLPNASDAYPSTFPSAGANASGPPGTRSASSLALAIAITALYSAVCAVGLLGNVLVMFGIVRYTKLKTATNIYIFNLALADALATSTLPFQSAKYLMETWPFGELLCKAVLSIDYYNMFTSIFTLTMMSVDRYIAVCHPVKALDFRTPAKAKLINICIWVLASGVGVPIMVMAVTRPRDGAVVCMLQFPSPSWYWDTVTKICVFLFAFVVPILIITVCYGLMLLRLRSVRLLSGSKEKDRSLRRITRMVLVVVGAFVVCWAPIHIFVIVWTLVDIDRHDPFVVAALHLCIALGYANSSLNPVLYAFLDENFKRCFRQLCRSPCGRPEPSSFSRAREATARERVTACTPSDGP
Chain of mu opioid receptors (A0ACM8Q262 1-400): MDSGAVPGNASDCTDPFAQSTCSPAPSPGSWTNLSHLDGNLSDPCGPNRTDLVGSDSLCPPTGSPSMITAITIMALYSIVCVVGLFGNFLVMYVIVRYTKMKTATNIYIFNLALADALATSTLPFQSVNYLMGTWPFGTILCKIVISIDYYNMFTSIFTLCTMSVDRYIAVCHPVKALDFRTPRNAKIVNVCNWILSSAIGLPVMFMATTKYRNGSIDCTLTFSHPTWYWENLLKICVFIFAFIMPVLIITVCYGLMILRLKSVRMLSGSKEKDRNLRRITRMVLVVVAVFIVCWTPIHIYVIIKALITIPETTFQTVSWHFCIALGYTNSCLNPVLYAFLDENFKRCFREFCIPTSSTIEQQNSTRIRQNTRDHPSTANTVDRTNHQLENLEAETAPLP
T2 sequence (P41144 whole entry): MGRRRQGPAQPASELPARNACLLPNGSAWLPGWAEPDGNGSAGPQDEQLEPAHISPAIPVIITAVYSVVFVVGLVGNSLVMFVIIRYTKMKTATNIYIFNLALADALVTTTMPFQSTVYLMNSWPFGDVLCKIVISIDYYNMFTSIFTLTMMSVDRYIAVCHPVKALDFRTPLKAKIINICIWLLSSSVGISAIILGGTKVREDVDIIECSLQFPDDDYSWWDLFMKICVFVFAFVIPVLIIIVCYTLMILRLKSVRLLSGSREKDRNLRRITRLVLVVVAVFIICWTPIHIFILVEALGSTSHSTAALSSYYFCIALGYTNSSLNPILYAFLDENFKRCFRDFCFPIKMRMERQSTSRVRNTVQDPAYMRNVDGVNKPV

Compound: 3-O-benzoyl-7,8-dihydromorphine-6-O-sulfate [NIDA # 20,275]
- Ki (delta receptors [1]; read-out: Ki δ [^3H]Cl-DPDPE): 1600 nM
- Ki (mu opioid receptors): 61.8 nM
- Guinea Pig Ileum DR with CTAP (mu receptors): 4.03 ± 1.51
- Guinea Pig Ileum Ke of CTAP (mu receptors): 37.64 ± 18.74
- IC50 (κ2 sites): > 10000 nM
- IC50 [2, 5]: 649 ± 131 nM

Compound: CCC12CCN(CC3(O)CC3)C(Cc3ccc(O)cc31)C2(C)C (single isomer, unassigned; (+)) [(+)Bremazocine]
- Ki (delta receptors [1]; read-out: Ki δ [^3H]Cl-DPDPE): 0.7 nM
- Ki (mu opioid receptors): 0.1 nM
- IC50 (κ2 sites): 11.2 nM
- Ki (kappa3 receptors): 0.1 nM

Compound: CCC12CCN(CC3CC3)C(C(=O)c3ccc(O)cc31)C2C (single isomer, unassigned; (+)) [(+)EKC-sulfonate]
- Ki (delta receptors [1]; read-out: Ki δ, experiment done with [^3H]DPDPE): 2.6 nM
- Ki (mu opioid receptors): 1.1 nM
- IC50 (κ2 sites): 133 nM
- Ki (kappa3 receptors): 5.3 nM

Compound: CCC12CCN(CC3(O)CC3)C(Cc3ccc(O)cc31)C2(C)C (single isomer, unassigned; (-)) [(−)Bremazocine]
- Ki (delta receptors [1]; read-out: Ki δ [^3H]Cl-DPDPE): 0.3 nM
- Ki (mu opioid receptors): 0.1 nM
- DR with CTAP (mu receptors): 0.83
- IC50 (κ2 sites): 2.2 nM
- IC50 [2, 6]: 0.067 nM
- Ki (kappa3 receptors): 0.1 nM

Compound: CC(C)C[C@@H](NC(=O)[C@H](Cc1ccccc1)NC(=O)CNC(=O)[C@@H](C)NC(=O)[C@@H](N)Cc1ccc(O)cc1)C(=O)O [DADLE-OH]
- Ki (delta receptors [1]): 0.3 nM
- Guinea Pig Ileum DR with CTAP (mu receptors): 4.33
- Guinea Pig Ileum Ke of CTAP (mu receptors): 30.58
- IC50 (κ2 sites): > 10000 nM
- IC50 [3, 7]: 1.6 nM
- Guinea Pig Ileum DR with Nor-BNI (kappa receptors): 1.53
- Guinea Pig Ileum Ke of Nor-BNI (kappa receptors): 38.13
- IC50 [2, 5]: 13.4 nM
- Ki (kappa3 receptors): 692 nM

Compound: C[C@@H](NC(=O)[C@@H](N)Cc1ccc(O)cc1)C(=O)NCC(=O)N(C)[C@@H](Cc1ccccc1)C(=O)NCCO [DAMGO, [D-Ala^2,N-Me-Phe^4,Gly-ol^5]-enkephalin]
- Guinea Pig Ileum DR with CTAP (mu receptors): 4.98
- Guinea Pig Ileum Ke of CTAP (mu receptors): 25.31
- Guinea Pig Ileum Ratio (CTAP) (mu receptors): 1.000
- IC50 [3, 7]: 178 nM
- Guinea Pig Ileum DR with Nor-BNI (kappa receptors): 1.74
- Guinea Pig Ileum Ke of Nor-BNI (kappa receptors): 27.67
- Guinea Pig Ileum Ratio (Nor-BNI) (kappa receptors): 0.002
- IC50 [2, 5]: 8.25 nM
- Mouse Vas Deferens DR with Naltrindole (delta receptors [4]): 0.93

Compound: CC1(C)SSC(C)(C)[C@@H](NC(=O)[C@@H](N)Cc2ccc(O)cc2)C(=O)NCC(=O)N[C@@H](Cc2ccc(Cl)cc2)C(=O)N[C@H]1C(=O)O [DPDPE-Cl]
- Ki (delta receptors [1]; read-out: Ki δ [^3H]Cl-DPDPE): 0.3 nM
- IC50 (κ2 sites): > 10000 nM
- Ki (kappa3 receptors): 1030 nM

Compound: CN1CC[C@]23c4c5ccc(O)c4O[C@H]2[C@@H](O)CC[C@H]3[C@H]1C5 [Dihydromorphine, 7,8-Dihydromorphine]
- Guinea Pig Ileum DR with CTAP (mu receptors): 12.46
- Guinea Pig Ileum Ke of CTAP (mu receptors): 17.46
- IC50 [3, 8]: 8.11 nM
- IC50 [2, 9]: 42.4 nM

Compound: CN1CC[C@]23c4c5ccc(OS(=O)(=O)O)c4O[C@H]2[C@@H](O)C=C[C@H]3[C@H]1C5 [NIDA # 20,268, morphine-3-O-sulfate]
- Ki (delta receptors [1]): > 10000 nM
- IC50 (κ2 sites): > 10000 nM
- Ki (kappa3 receptors): 1690 nM

Compound: C[N+]1(C)CC[C@]23c4c5ccc(OC(=O)c6ccccc6)c4O[C@H]2[C@@H](OS(=O)(=O)[O-])C=C[C@H]3[C@H]1C5 [NIDA # 20,274, 3-O-Benzoyl-N-methylmorphinium-6-O-sulfate]
- Ki (delta receptors [1]): > 10000 nM
- IC50 (κ2 sites): > 10000 nM
- inhibition at 100 µM ([2]; Cavia porcellus, read-out: Guinea pig ileum maximum inhibition): 38%
- Ki (kappa3 receptors): > 10000 nM

Compound: C=CCN1CC[C@]23c4c5ccc(O)c4O[C@H]2[C@@H](O)C=C[C@H]3[C@H]1C5 [Nalorphine]
- Guinea Pig Ileum DR with CTAP (mu receptors): 0.90
- Guinea Pig Ileum DR with Nor-BNI (kappa receptors): 643.9
- Guinea Pig Ileum Ke of Nor-BNI (kappa receptors): 0.03
- IC50 [2, 9]: 29.2 nM

Compound: O=C1CC[C@@]2(O)[C@H]3Cc4ccc(O)c5c4[C@@]2(CCN3CC2CC2)[C@H]1O5 [Naltrexone-HCl]
- IC50 (κ2 sites): 230 nM
- Ki (kappa3 receptors): 3.8 nM

Compound: Oc1ccc2c3c1O[C@H]1[C@@H](O)C=C[C@H]4[C@@H](C2)NCC[C@@]341 [Normorphine]
- Guinea Pig Ileum DR with CTAP (mu receptors): 3.02
- Guinea Pig Ileum Ke of CTAP (mu receptors): 50.25
- Guinea Pig Ileum Ratio (CTAP) (mu receptors): 0.500
- IC50 [3, 8]: 512 nM
- Guinea Pig Ileum DR with Nor-BNI (kappa receptors): 1.90
- Guinea Pig Ileum Ke of Nor-BNI (kappa receptors): 26.47
- Guinea Pig Ileum Ratio (Nor-BNI) (kappa receptors): 0.002
- IC50 [2, 9]: 47.3 nM
- Mouse Vas Deferens DR with Naltrindole (delta receptors [4]): 1.06
- Mouse Vas Deferens Ke of Naltrindole (delta receptors [4]): 8.38 ± 0
- Mouse Vas Deferens Ratio (Naltrindole) (delta receptors [4]): 0.0025

Compound: COc1ccc2c3c1O[C@H]1C(=O)CC[C@@]4(O)[C@@H](C2)N(C)CC[C@]314 [Oxycodone]
- Guinea Pig Ileum DR with CTAP (mu receptors): 2.30
- Guinea Pig Ileum Ke of CTAP (mu receptors): 78.66
- Guinea Pig Ileum Ratio (CTAP) (mu receptors): 0.322
- IC50 [3, 8]: 6330 nM
- Guinea Pig Ileum DR with Nor-BNI (kappa receptors): 1.45
- Guinea Pig Ileum Ke of Nor-BNI (kappa receptors): 45.84
- Guinea Pig Ileum Ratio (Nor-BNI) (kappa receptors): 0.001
- IC50 [2, 9]: 324 nM
- Mouse Vas Deferens DR with Naltrindole (delta receptors [4]): 0.79

Compound: COC(=O)/C=C/C(=O)N[C@@H]1CC[C@@]2(O)[C@H]3Cc4ccc(O)c5c4[C@@]2(CCN3CC2CC2)[C@H]1O5 [β-FNA-HCl]
- Ki (mu opioid receptors): 0.4 nM
- IC50 (κ2 sites): 66.5 nM
- Ki (kappa3 receptors): 0.8 nM

Compound: (−) Cyclazocine
- Ki (mu opioid receptors): 0.1 nM
- Guinea Pig Ileum DR with CTAP (mu receptors): 1.00 ± 0.00
- IC50 (κ2 sites): 17.3 nM
- IC50 [2, 5]: 1.05 nM
- Ki (kappa3 receptors): 0.2 nM

Compound: Dynorphin (1-13)-NH2
- IC50 (κ2 sites): 24.6 nM
- Ki (kappa3 receptors): 4.1 nM

Compound: Dynorphin (1-13)-OH
- IC50 (κ2 sites): 180 nM
- Ki (kappa3 receptors): 15.4 nM

Compound: Dynorphin (1-17)-OH
- IC50 (κ2 sites): 29.5 nM
- Ki (kappa3 receptors): 5.1 nM

Compound: Dynorphin A (1-17)
- DR with CTAP (mu receptors): 1.52
- Ke of CTAP (mu receptors): 209.89
- IC50 [3, 10]: 29.3 nM
- IC50 [2, 6]: 0.95 nM

Compound: Dynorphin B
- DR with CTAP (mu receptors): 1.08
- Ke of CTAP (mu receptors): 344.83
- IC50 [3, 10]: 39.1 nM
- IC50 [2, 6]: 4.4 nM

Compound: Dynorphin B-OH
- IC50 (κ2 sites): 70 nM
- Ki (kappa3 receptors): 14.2 nM

Compound: Dynorphin(1-9)-OH
- Guinea Pig Ileum DR with CTAP (mu receptors): 1.13
- Guinea Pig Ileum Ke of CTAP (mu receptors): 357.14
- IC50 (κ2 sites): 324 nM
- IC50 [3, 7]: 12.2 nM
- IC50 [2, 5]: 4.69 nM
- Mouse Vas Deferens DR with Naltrindole (delta receptors [4]): 5.71
- Mouse Vas Deferens Ke of Naltrindole (delta receptors [4]): 0.281
- Ki (kappa3 receptors): 20.2 nM

Compound: Met-Enkephalin
- Guinea Pig Ileum DR with CTAP (mu receptors): 5.08±
- Guinea Pig Ileum Ke of CTAP (mu receptors): 24.50
- IC50 (κ2 sites): > 10000 nM
- IC50 [3, 7]: 1.52 nM
- IC50 [2, 5]: 27.4 nM
- Mouse Vas Deferens DR with Naltrindole (delta receptors [4]): 13.63
- Mouse Vas Deferens Ke of Naltrindole (delta receptors [4]): 0.082
- Ki (kappa3 receptors): 277 nM

Compound: [D-Pen^3.5-enkephalin] [DPDPE-OH]
- Guinea Pig Ileum DR with CTAP (mu receptors): 5.64
- Guinea Pig Ileum Ke of CTAP (mu receptors): 25.83
- Guinea Pig Ileum Ratio (CTAP) (mu receptors): 0.980
- IC50 (κ2 sites): > 10000 nM
- Guinea Pig Ileum DR with Nor-BNI (kappa receptors): 1.54
- Guinea Pig Ileum Ke of Nor-BNI (kappa receptors): 50.68
- Guinea Pig Ileum Ratio (Nor-BNI) (kappa receptors): 0.001
- IC50 [2, 5]: 4130 nM
- Mouse Vas Deferens DR with Naltrindole (delta receptors [4]): 53.11
- Mouse Vas Deferens Ke of Naltrindole (delta receptors [4]): 0.021
- Mouse Vas Deferens Ratio (Naltrindole) (delta receptors [4]): 1.000
- Ki (kappa3 receptors): > 1000 nM
